Consider 22 compounds from patent US12365655B2, “Compounds” (CTXT PTY LTD, priority 2018, dated 2025).

For assay [1], the system named is acetylation of the histone H3 Lysine 14 marker in U2OS cells. The assay can be described thus: Histone H3 Lysine 14 Acetylation Biomarker Assay. The format is cell-based. As to conditions: Homo sapiens, serum free medium, 24 hours incubation, read-out: IC50, inhibition of histone H3 Lysine 14 acetylation. How it is done: Compounds were tested for their ability to inhibit acetylation of the histone H3 Lysine 14 marker in the following assay:
The cell line U2OS was seeded at a density of 3,000 cells per well in 384-well optical quality tissue culture plates in RPMI medium supplemented with 10% foetal bovine serum and 10 mM Hepes. The cells were allowed to adhere for 24 hours under standard culture conditions (37 degree Celsius, 5% CO2). At the end of this period the cells were washed with serum free medium. […] After incubation for 24 hours, the cells were fixed with 4% formaldehyde in PBS for 15 minutes at room temperature, washed with phosphate buffer saline and blocked with blocking buffer containing 0.2% TritonX100 and 2% BSA. Anti-H3K14ac specific antibody (Cell Signalling Technologies) in blocking buffer was added and incubated overnight at 4 degree Celsius. After washing, a secondary antibody labelled with AlexaFluor 488 dye (ThermoFisher) and Hoechst 33342 (1 μg/mL, Life Technologies) were added for 2 hours incubation at room temperature. Plates were washed and read on a PerkinElmer Opera HCS high content imaging platform. Using a Columbus image analysis pipeline, individual nuclei were located by Hoechst 33342 stain and the acetylation level was calculated from the AlexaFluor 488-related intensity in the same area.

Another assay concerns the target TIP60-KAT5 (Homo sapiens, UniProt Q92993). The assay is described as follows: Acetyltransferase biochemical assay (AlphaScreen), KAT5.
Another assay concerns the target HBO-KAT7 (Homo sapiens, UniProt O95251). The assay is described as follows: Acetyltransferase biochemical assay (AlphaScreen), KAT7.
For a further assay, the target named is MOZ-KAT6A (Homo sapiens, UniProt Q92794, A567V). The assay can be described thus: Acetyltransferase biochemical assay (AlphaScreen), KAT6A.
Another assay concerns the target T1, MOF-KAT8 (Homo sapiens, UniProt Q9H7Z6).
T1 sequence (Q9H7Z6 with tags, fused parts or gaps): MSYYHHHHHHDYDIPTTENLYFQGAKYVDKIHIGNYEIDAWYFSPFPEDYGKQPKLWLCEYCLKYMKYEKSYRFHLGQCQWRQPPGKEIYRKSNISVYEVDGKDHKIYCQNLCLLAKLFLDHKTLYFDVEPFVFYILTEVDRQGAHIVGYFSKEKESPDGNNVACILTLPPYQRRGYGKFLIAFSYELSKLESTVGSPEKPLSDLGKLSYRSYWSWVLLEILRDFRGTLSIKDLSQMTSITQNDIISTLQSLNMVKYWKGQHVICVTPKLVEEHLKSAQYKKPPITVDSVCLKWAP
The assay is described as follows: biochemical.

For assay [2], the system named is histone H2A.Z Lysine 7 acetylation marker in U2OS cells. The assay is described as follows: H2A.Z Lysine 7 Acetylation Biomarker Assay. The assay is classed as cell-based. As to conditions: Homo sapiens, serum free medium, 24 hours incubation, read-out: IC50, inhibition of histone H2A.Z Lysine 7 acetylation. How it is done:
Compounds were tested for their ability to inhibit the histone H2A.Z Lysine 7 acetylation marker in the following assay:
The cell line U2OS was seeded at a density of 3,000 cells per well in 384-well optical quality tissue culture plates in RPMI medium supplemented with 10% foetal bovine serum and 10 mM Hepes. The cells were allowed to adhere for 24 hours under standard culture conditions (37 degree Celsius, 5% CO2). At the end of this period the cells were washed with serum free medium. […] 2018, at 30 μM concentration. After incubation for 24 hours, the cells were fixed with 4% formaldehyde in PBS for 15 minutes at room temperature, washed with phosphate buffer saline and blocked with blocking buffer containing 0.2% TritonX100 and 2% BSA. Anti-H2A.ZK7ac specific antibody (Abcam) in blocking buffer was added and incubated overnight at 4 degree Celsius. After washing, a secondary antibody labelled with AlexaFluor 488 dye (ThermoFisher) and Hoechst 33342 (1 μg/mL, Life Technologies) were added for 2 hours incubation at room temperature. Plates were washed and read on a PerkinElmer Opera HCS high content imaging platform. Using a Columbus image analysis pipeline, individual nuclei were located by Hoechst 33342 stain and the acetylation level was calculated from the AlexaFluor 488-related intensity in the same area.

Sequence of HBO-KAT7 (O95251 with tags, fused parts or gaps): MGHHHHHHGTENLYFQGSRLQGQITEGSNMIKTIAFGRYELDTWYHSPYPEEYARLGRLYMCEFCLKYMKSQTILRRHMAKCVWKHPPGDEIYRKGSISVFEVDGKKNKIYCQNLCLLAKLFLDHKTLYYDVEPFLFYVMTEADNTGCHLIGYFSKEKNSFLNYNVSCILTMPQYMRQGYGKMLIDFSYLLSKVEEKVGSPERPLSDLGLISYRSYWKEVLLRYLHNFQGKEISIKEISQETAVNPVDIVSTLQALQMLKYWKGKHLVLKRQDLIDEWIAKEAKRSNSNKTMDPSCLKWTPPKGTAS
Sequence of TIP60-KAT5 (Q92993 with tags, fused parts or gaps isoform Q92993-2): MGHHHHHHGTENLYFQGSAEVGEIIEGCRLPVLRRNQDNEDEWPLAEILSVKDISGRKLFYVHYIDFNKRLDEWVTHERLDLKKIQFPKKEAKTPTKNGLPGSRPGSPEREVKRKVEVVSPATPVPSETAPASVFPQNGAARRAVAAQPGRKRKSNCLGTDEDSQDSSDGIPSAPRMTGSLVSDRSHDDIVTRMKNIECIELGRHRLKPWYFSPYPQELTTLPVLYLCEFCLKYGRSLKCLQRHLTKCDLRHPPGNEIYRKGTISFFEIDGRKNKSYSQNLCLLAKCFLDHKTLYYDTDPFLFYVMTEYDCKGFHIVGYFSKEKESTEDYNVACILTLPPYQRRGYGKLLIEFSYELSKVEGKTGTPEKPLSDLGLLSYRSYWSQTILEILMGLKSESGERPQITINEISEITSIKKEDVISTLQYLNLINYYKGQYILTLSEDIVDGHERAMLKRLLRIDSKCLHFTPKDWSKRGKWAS
Sequence of MOZ-KAT6A (Q92794 with tags, fused parts or gaps A567V): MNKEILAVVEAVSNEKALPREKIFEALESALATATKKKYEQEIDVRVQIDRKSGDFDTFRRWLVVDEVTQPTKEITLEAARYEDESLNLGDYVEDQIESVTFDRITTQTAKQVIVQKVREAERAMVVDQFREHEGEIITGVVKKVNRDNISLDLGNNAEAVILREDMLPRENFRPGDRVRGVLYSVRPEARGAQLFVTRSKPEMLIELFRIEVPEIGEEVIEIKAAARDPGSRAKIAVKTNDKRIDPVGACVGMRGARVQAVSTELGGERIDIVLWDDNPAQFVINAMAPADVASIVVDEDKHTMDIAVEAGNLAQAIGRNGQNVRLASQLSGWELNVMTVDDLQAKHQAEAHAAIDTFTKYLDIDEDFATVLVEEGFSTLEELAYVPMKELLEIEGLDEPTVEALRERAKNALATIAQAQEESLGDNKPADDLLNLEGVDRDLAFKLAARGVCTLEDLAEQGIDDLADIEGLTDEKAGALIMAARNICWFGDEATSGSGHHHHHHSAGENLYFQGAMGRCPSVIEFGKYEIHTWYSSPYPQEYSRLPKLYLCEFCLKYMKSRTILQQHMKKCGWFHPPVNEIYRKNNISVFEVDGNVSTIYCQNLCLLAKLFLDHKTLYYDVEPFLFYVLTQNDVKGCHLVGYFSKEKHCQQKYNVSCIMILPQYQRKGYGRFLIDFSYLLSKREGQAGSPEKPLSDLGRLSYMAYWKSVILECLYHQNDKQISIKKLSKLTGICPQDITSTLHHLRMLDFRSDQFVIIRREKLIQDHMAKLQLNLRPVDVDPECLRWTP

`COc1ccnc2c(S(=O)(=O)Nc3noc4cccc(OC)c34)cccc12` [Example 75, 4-methoxy-N-(4-methoxybenzo[d]isoxazol-3-yl)quinoline-8-sulfonamide]: the IC50 in assay [1] is greater than 40 µM; against TIP60-KAT5 it was 33.5 µM; at HBO-KAT7, 5.75 µM; against MOZ-KAT6A, 23.5 µM.
On the same counts, the results for `COc1ccc(S(=O)(=O)Nc2noc3cccc(OC)c23)c2ncccc12` [Example 74, 5-methoxy-N-(4-methoxybenzo[d]isoxazol-3-yl) quinoline-8-sulfonamide] are 31.7 µM, 8.13 µM, 1.66 µM and 3.91 µM.
As for `COCc1cc(OC)c2c(NS(=O)(=O)c3c(O)cccc3OC)noc2c1` [Example 163, 2-hydroxy-6-methoxy-N-(4-methoxy-6-(methoxymethyl)benzo[d]isoxazol-3-yl)benzenesulfonamide], the IC50 in assay [1] is 20.4 µM; at MOF-KAT8, greater than 125 µM; against TIP60-KAT5, greater than 125 µM; against HBO-KAT7, 13.1 µM; against MOZ-KAT6A, 0.884 µM.
On to `CCOc1cccc(OC)c1S(=O)(=O)Nc1noc2cccc(OC)c12` [Example 218, 2-Ethoxy-6-methoxy-N-(4-methoxybenzo[d]isoxazol-3-yl)benzenesulfonamide], for which the IC50 in assay [1] was greater than 40 µM; against TIP60-KAT5, greater than 125 µM; against HBO-KAT7, 6.44 µM; against MOZ-KAT6A, 6.59 µM.
Take `COc1cccc(F)c1S(=O)(=O)Nc1noc2cccc(OC)c12` [Example 212, 2-Fluoro-6-methoxy-N-(4-methoxybenzo[d]isoxazol-3-yl)benzenesulfonamide]: the IC50 amounted to 10.3 µM in assay [1], 9.3 µM at TIP60-KAT5, 1.05 µM on HBO-KAT7 and 2.12 µM against MOZ-KAT6A.
On the same counts, the results for `COc1ccc(S(=O)(=O)Nc2noc3cc(Br)c(C)cc23)c(OC)c1` [Example 171] are 2.57 µM, 4.37 µM, 0.292 µM and 1.88 µM.
As for `COc1cccc2onc(NS(=O)(=O)c3cccc4c3OCCC4)c12` [Example 82, N-(4-methoxybenzo[d]isoxazol-3-yl)chromane-8-sulfonamide], the IC50 worked out at 12.6 µM in assay [1], 8.25 µM against TIP60-KAT5, 1.5 µM on HBO-KAT7 and 6.13 µM at MOZ-KAT6A.
Regarding `COc1cccc(OC)c1S(=O)(=O)Nc1noc2cc(C(C)OC)cc(OC)c12` (stereo not drawn) [Example 93, 2,6-Dimethoxy-N-(4-methoxy-6-(1-methoxyethyl)benzo[d]isoxazol-3-yl)benzenesulfonamide], the IC50 against MOF-KAT8 is 96.5 µM; on TIP60-KAT5, 53.1 µM; against HBO-KAT7 it was 2.8 µM; against MOZ-KAT6A, 0.181 µM.
For `CCc1ccc(OC)c(S(=O)(=O)Nc2noc3cccc(OC)c23)c1OC` [Example 94, 3-Ethyl-2,6-dimethoxy-N-(4-methoxybenzo[d]isoxazol-3-yl)benzenesulfonamide], the IC50 at MOF-KAT8 was 60.9 µM; against TIP60-KAT5, 124 µM; against HBO-KAT7, 16.1 µM; on MOZ-KAT6A, 6.11 µM.
For `O=S(=O)(Nc1noc2cccc(Cl)c12)c1ccc(Cl)cc1` [Example 26, 4-chloro-N-(4-chlorobenzo[d]isoxazol-3-yl)benzenesulfonamide], the IC50 on MOF-KAT8 is 29.5 µM; against TIP60-KAT5 it was greater than 125 µM; on HBO-KAT7 it was 34.5 µM; against MOZ-KAT6A, 60.1 µM.
As to `COc1cccc2onc(NS(=O)(=O)c3cccc4ccc(C)nc34)c12` [Example 80, N-(4-methoxybenzo[d]isoxazol-3-yl)-2-methyl quinoline-8-sulfonamide], the IC50 in assay [1] is 11.5 µM; on TIP60-KAT5, 10.9 µM; against HBO-KAT7 it was 1.13 µM; at MOZ-KAT6A, 3.47 µM.
`COc1cccc(OCC(N)=O)c1S(=O)(=O)Nc1noc2cccc(OC)c12` [Example 219, 2-(3-Methoxy-2-(N-(4-methoxybenzo[d]isoxazol-3-yl)sulfamoyl)phenoxy)acetamide]: the IC50 against MOF-KAT8 was 69.9 µM; against TIP60-KAT5, greater than 125 µM; against HBO-KAT7 it was 60.7 µM; against MOZ-KAT6A, 33.3 µM.
Consider `COc1cc(CNC(C)=O)cc(OC)c1S(=O)(=O)Nc1noc2cccc(OC)c12` [Example 211, N-(3,5-Dimethoxy-4-(N-(4-methoxybenzo[d]isoxazol-3-yl)sulfamoyl)benzyl)acetamide], for which the IC50 in assay [1] is greater than 40 µM; against MOF-KAT8, 29.5 µM; against TIP60-KAT5 it was 7.93 µM; at HBO-KAT7 it was 0.917 µM; against MOZ-KAT6A, 2.13 µM.
For the compound `O=S(=O)(Nc1noc2cccc(Cl)c12)c1ccccc1-c1cnco1` [Example 11, N-(4-chlorobenzo [d]isoxazol-3-yl)-2-(oxazol-5-yl)benzenesulfonamide], the IC50 against MOF-KAT8 was 35.6 µM; against TIP60-KAT5, greater than 125 µM; against HBO-KAT7, 60.5 µM; on MOZ-KAT6A it was greater than 125 µM.
For `COCc1cc2onc(NS(=O)(=O)c3cccnc3)c2cc1C` [Example 165, N-(6-(methoxymethyl)-5-methylbenzo[d]isoxazol-3-yl)pyridine-3-sulfonamide], the IC50 on MOF-KAT8 was greater than 125 µM; against TIP60-KAT5 it was greater than 125 µM; at HBO-KAT7, 30.7 µM; against MOZ-KAT6A, 99.9 µM.
With `CCc1ccc(OC)c(S(=O)(=O)Nc2noc3cccc(Cl)c23)c1` [Example 154], the IC50 at MOF-KAT8 was determined as 2.57 µM; at TIP60-KAT5 it was 25.3 µM; on HBO-KAT7, 3.13 µM; on MOZ-KAT6A, 0.516 µM.
On to `CNc1cccc(OC)c1S(=O)(=O)Nc1noc2cccc(OC)c12` [Example 214, 2-Methoxy-N-(4-methoxybenzo[d]isoxazol-3-yl)-6-(methylamino)benzenesulfonamide], for which the IC50 was greater than 125 µM at MOF-KAT8, greater than 125 µM at TIP60-KAT5, greater than 125 µM at HBO-KAT7 and 36.4 µM at MOZ-KAT6A.
With `CS(=O)(=O)c1ccc(S(=O)(=O)Nc2noc3cccc(Cl)c23)cc1` [Example 21, N-(4-chlorobenzo [d]isoxazol-3-yl)-4-(methylsulfonyl) benzenesulfonamide], the 50% inhibitory concentration (IC50) was 39.7 µM against MOF-KAT8, greater than 125 µM against TIP60-KAT5, 25.5 µM against HBO-KAT7 and 24.8 µM against MOZ-KAT6A.
On the same counts, the results for `COCc1cc(OC)c2c(NS(=O)(=O)c3c(OC)cccc3OC)noc2c1Cl` [Example 161] are 118 µM, greater than 125 µM, 2.51 µM and 1.87 µM.
`Cc1ccc(-c2ccno2)cc1S(=O)(=O)Nc1noc2cccc(Cl)c12` [Example 19, N-(4-chlorobenzo [d]isoxazol-3-yl)-5-(isoxazol-5-yl)-2-methylbenzenesulfonamide]: the IC50 was determined as 41 µM against MOF-KAT8, 65 µM against TIP60-KAT5, 36.1 µM against HBO-KAT7 and 32.2 µM at MOZ-KAT6A.
In the same order, the values of `COc1cccc(OC)c1S(=O)(=O)Nc1noc2cccc(N)c12` [Example 224] are 113 µM, greater than 125 µM, greater than 125 µM and 50.4 µM.
Regarding `CCc1ccc(OC)c(S(=O)(=O)Nc2noc3ccc(C)cc23)c1` [Example 234, 5-Ethyl-2-methoxy-N-(5-methylbenzo[d]isoxazol-3-yl)benzenesulfonamide], the IC50 was greater than 40 µM in assay [2], 10.9 µM at TIP60-KAT5, 3.74 µM against HBO-KAT7 and 0.381 µM against MOZ-KAT6A.

By IC50 is commonly meant the concentration that inhibits the measured activity by half.
